From patent US20070203066A1, “Compositions and methods for inhibiting cellular proliferation” (priority 2005, published 2007) come the findings set out here.

pIC50: −log10 of the molar value. Non-standard residues stand in square brackets, D forms with d. Primed or numbered codes have the meaning given here. No end group written: not given here. Ida(3) = iminodiacetic acid linker, Lys side-chain amines bound to its two carboxyl groups; Dip = N[C@H](C(=O)O)C(c1ccccc1)c1ccccc1; d(hPhe) = N[C@H](CCc1ccccc1)C(=O)O; Cha = N[C@@H](CC1CCCCC1)C(=O)O; Phg = N[C@H](C(=O)O)c1ccccc1 Bounds are passed on as bounds.

The test concerns HUVECs. Format: cell-based. Conditions: HUVEC proliferation, bFGF at 10 ng/ml or VEGF at 5 ng/ml, 48 hours, BrdU incorporation; read-out: IC50 on HUVECs. Put shortly:
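HUVECs seeded at 5,000 cells/well in EBM with 2% FCS, adhered ≥12 hours, then stimulated with bFGF 10 ng/ml or VEGF 5 ng/ml plus varying peptide concentrations. After 48 hours at 37 ° C, 5% CO2, proliferation inhibition read by BrdU incorporation.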
Background: Dividing cells build labelled thymidine or BrdU into new DNA.
Regarding “351 (Ac-ARRRRQRVAIYGK-NH2; not fully specified (residue 13); also: homodimer of residues 1-13 via Ida linker on K13 side chain) [compound 351]”, the pIC50 is less than 4.52.
On to “352 (Ac-ARRRRQRVAIYIK-NH2; not fully specified (residue 13); also: homodimer of residues 1-13 via Ida linker on K13 side chain) [compound 352]”, for which the negative-log IC50 (pIC50) is greater than 5.00.
Turning to “353 (Ac-ARRRRQRVAIYYK-NH2; not fully specified (residue 13); also: homodimer of residues 1-13 via Ida linker on K13 side chain) [compound 353]”, the pIC50 is less than 4.52.
For “355 (Ac-ARRRR[dQ]RVAIIFK; not fully specified) [compound 355]”, the pIC50 was less than 4.52.
“356 (Ac-A[dR]RRRQRVAIIFK; not fully specified) [compound 356]”: the pIC50 was less than 4.52.
As to “357 (Ac-RRRRRQAVRIQIQFK; not fully specified) [compound 357]”, the pIC50 was 4.52 to 5.00.
For “358 (Ac-RRRRRQAVRIDIDFK; not fully specified) [compound 358]”, the pIC50 was less than 4.52.
With “359 (Ac-RRRHHQHVRIYFK(Ida(3))-NH2; also: homodimer via Ida linker on Lys13 side chain, Boc on Ida amine) [compound 359]”, the pIC50 is greater than 5.00.
As for “360 (Ac-RRRHRQHVHIYFK(Ida(3))-NH2; also: homodimer via Ida linker on Lys13 side chain, Boc on Ida amine) [compound 360]”, the figure is greater than 5.00.
On to “361 (Ac-ARRRRQRVAIYFK; not fully specified) [compound 361]”, for which the pIC50 is less than 4.52.
As to “362 (Ac-ARRRRQRVA[Cha]YFK-NH2; not fully specified (residue 13); also: homodimer: Lys13 side chains joined by Ida (iminodiacetic acid) linker) [compound 362]”, the pIC50 was greater than 5.00.
Turning to “363 (Ac-ARRRRQRVAWYFK-NH2; not fully specified (residue 13); also: homodimer of residues 1-13 via Ida linker on K13 side chain) [compound 363]”, the pIC50 is greater than 5.00.
As for “364 (Ac-ARRRRQRVAEYFK-NH2; not fully specified (residue 13); also: homodimer of residues 1-13 via Ida linker on K13 side chain) [compound 364]”, the pIC50 is less than 4.52.
For “365 (Ac-ARRRRQRVATYFK-NH2; not fully specified (residue 13); also: homodimer of residues 1-13 via Ida linker on K13 side chain) [compound 365]”, the pIC50 was less than 4.52.
In the case of “366 (Ac-ARRRRQRVAHYFK-NH2; not fully specified (residue 13); also: homodimer of residues 1-13 via Ida linker on K13 side chain) [compound 366]”, the pIC50 was less than 4.52.
Take “367 (Ac-ARRRRQRVAPYFK-NH2; not fully specified (residue 13); also: homodimer of residues 1-13 via Ida linker on K13 side chain) [compound 367]”: the pIC50 is less than 4.52.
For “368 (Ac-ARRRRQRVA[Dip]YFK-NH2; not fully specified (residue 13); printed as [AcARRRRQRVA3,3-diphenylAlaYFK*]; also: homodimer via Ida linker on Lys13 side chain, Boc on Ida amine) [compound 368]”, the pIC50 is greater than 5.00.
Regarding “369 (Ac-ARRRRQRVAQYFK-NH2; not fully specified (residue 13); also: homodimer via Ida linker on Lys13 side chain, Boc on Ida amine) [compound 369]”, the pIC50 was less than 4.52.
The same measure for “370 (Ac-ARRRRQRVAFYFK-NH2; not fully specified (residue 13); also: homodimer via Ida linker on Lys13 side chain, Boc on Ida amine) [compound 370]”: greater than 5.00.
“371 (Ac-ARRRRQRVAYYFK-NH2; not fully specified (residue 13); also: homodimer via Ida linker on Lys13 side chain, Boc on Ida amine) [compound 371]”: the pIC50 is greater than 5.00.
As for “373 (Ac-ARRRRQRVA[d(hPhe)]YFK(Ida(3))-NH2; also: homodimer via Ida linker on Lys13 side chain, Boc on Ida amine) [compound 373]”, the figure is 4.52 to 5.00; as for “374 (Ac-ARRRRQRVA[Phg]YFK(Ida(3))-NH2; also: homodimer via Ida linker on Lys13 side chain, Boc on Ida amine) [compound 374]”, greater than 5.00; as for “377 (Ac-ARRRRQRVAIMFK-NH2; not fully specified (residue 13); also: homodimer via Ida linker on Lys13 side chain, Boc on Ida amine) [compound 377]”, greater than 5.00.
On to “378 (Ac-ARRRRQRVAIQFK-NH2; not fully specified (residue 13); also: homodimer via Ida linker on Lys13 side chain, Ida amine Boc) [compound 378]”, for which the pIC50 was greater than 5.00.
Regarding “379 (Ac-ARRRRQRVAISFK-NH2; not fully specified (residue 13); also: homodimer via Ida linker on Lys13 side chain, Ida amine Boc) [compound 379]”, the pIC50 is greater than 5.00.
Regarding “380 (Ac-ARRRRQEVAIYFK-NH2; not fully specified (residue 13); also: homodimer via Ida linker on Lys13 side chain, Ida amine Boc) [compound 380]”, the pIC50 was greater than 5.00.
Take “382 (Ac-ARRRRQRVAIVFK-NH2; not fully specified (residue 13); also: homodimer via Ida linker on Lys13 side chain, Ida amine Boc) [compound 382]”: the pIC50 was greater than 5.00.
The same measure for “383 (Ac-ARRRRQFVAIYFK-NH2; not fully specified (residue 13); also: homodimer via Ida linker on Lys13 side chain, Ida amine Boc) [compound 383]”: greater than 5.00; for “384 (Ac-ARRRRQGVAIYFK-NH2; not fully specified (residue 13); also: homodimer via Ida linker on Lys13 side chain, Ida amine Boc) [compound 384]”: greater than 5.00.
As to “385 (Ac-ARRRRQMVAIYFK-NH2; not fully specified (residue 13); also: homodimer via Ida linker on Lys13 side chain, Ida amine Boc) [compound 385]”, the pIC50 was greater than 5.00.
Consider “386 (Ac-ARRRRQNVAIYFK-NH2; not fully specified (residue 13); also: homodimer via Ida linker on Lys13 side chain, Ida amine Boc) [compound 386]”, for which the pIC50 is greater than 5.00.
As for “387 (Ac-ARRRRQAVEIYFK-NH2; not fully specified (residue 13); also: homodimer via Ida linker on Lys13 side chain, Ida amine Boc) [compound 387]”, the figure is greater than 5.00.

Usually pIC50 stands for the negative decadic logarithm of the IC50, by convention in mol/L.
